According to patent US20260347373A1, “HETEROCYCLIC COMPOUNDS, COMPOSITIONS THEREOF, AND METHODS OF TREATMENT THEREWITH” (BeOne Medicines I GmbH, priority 2023, published 2026):
Read-outs that look alike come from different tables or passages of the source.

What was measured:
[1] = molecular target: KRAS G12D (Homo sapiens, UniProt P01116, G12D); experiment: KRAS G12D Probe Displacement Assay (TR-FRET, GDP-loaded); type: binding
Text: (§1) The synthetic routes of probe 1 and 2, which have been disclosed in PCT/CN2022/070676, are hereby incorporated herein.

[2] = molecular target: WT KRAS (Homo sapiens, UniProt P01116); experiment: KRAS WT Probe Displacement Assay (TR-FRET, GDP-loaded); type: binding
Sequence of WT KRAS (P01116 1-188 isoform P01116-2): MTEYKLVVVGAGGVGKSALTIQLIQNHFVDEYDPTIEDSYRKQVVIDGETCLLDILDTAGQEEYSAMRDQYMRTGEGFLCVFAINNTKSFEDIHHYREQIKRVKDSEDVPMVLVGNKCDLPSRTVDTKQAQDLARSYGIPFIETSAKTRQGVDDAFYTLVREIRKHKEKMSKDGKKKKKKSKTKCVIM
Text: as §1

[3] = KRAS G12D, read-out: KRAS^G12D Probe Displacement Assay IC50
[4] = KRAS WT, read-out: KRAS^WT Probe Displacement Assay IC50

Sequence of KRAS G12D (P01116 1-188 isoform P01116-2 G12D): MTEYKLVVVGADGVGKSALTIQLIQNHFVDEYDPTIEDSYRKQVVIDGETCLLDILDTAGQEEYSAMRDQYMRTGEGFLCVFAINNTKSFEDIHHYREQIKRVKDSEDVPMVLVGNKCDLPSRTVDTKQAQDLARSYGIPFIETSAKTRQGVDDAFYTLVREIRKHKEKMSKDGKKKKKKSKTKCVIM

| SMILES | IC50 [1, 3] [nM] | IC50 [2, 4] [nM] | IC50 ([1]; KRAS^G12D Probe Displacement Assay IC50, KRAS G12D) [nM] | IC50 ([2]; KRAS^WT Probe Displacement Assay IC50, KRAS WT) [nM] |
| --- | --- | --- | --- | --- |
| Cc1cc(N)cc(-c2nc3c4c(nc(OCC5(CN6CCC=C(F)C6)CC5)nc4c2F)N2C[C@H]4CC[C@H](N4)[C@H]2CCO3)c1C(F)(F)F [Example 179, 3-((6aR,7S,10R)-1-fluoro-13-((1-((5-fluoro-3,6-dihydropyridin-1(2H)-yl)methyl)cyclopropyl)methoxy)-5,6,6a,7,8,9,10,11-octahydro-4-oxa-3,11a,12,14,15-pentaaza-7,10-methanocyclohepta[4,5]cycloocta[1,2,3-de]naphthalen-2-yl)-5-methyl-4-(trifluoromethyl)aniline] | < 0.3 | 3 to 1000 | – | – |
| C=C1CN2C[C@H]3C[C@H]3[C@]2(COc2nc3c4c(nc(-c5cc(N)cc(C)c5C(F)(F)F)c(F)c4n2)OCC[C@@H]2[C@@H]4CC[C@H](CN32)N4)C1 [Example 212, 3-((6aR,7S,10R)-1-fluoro-13-(((1aS,6bR)-5-methylenehexahydrocyclopropa[a]pyrrolizin-6a(4H)-yl)methoxy)-5,6,6a,7,8,9,10,11-octahydro-4-oxa-3,11a,12,14,15-pentaaza-7,10-methanocyclohepta[4,5]cycloocta[1,2,3-de]naphthalen-2-yl)-5-methyl-4-(trifluoromethyl)aniline] | < 0.3 | 3 to 1000 | – | – |
| Cc1cc(N)cc(-c2nc3c4c(nc(OCC5(CN6CC(O)(C(F)(F)F)C6)CC5)nc4c2F)N2C[C@H]4CC[C@H](N4)[C@H]2CCO3)c1C(F)(F)F [Example 80, 1-((1-((((6aR,7S,10R)-2-(5-amino-3-methyl-2-(trifluoromethyl)phenyl)-1-fluoro-5,6,6a,7,8,9,10,11-octahydro-4-oxa-3,11a,12,14,15-pentaaza-7,10-methanocyclohepta[4,5]cycloocta [1,2,3-de]naphthalen-13-yl)oxy)methyl)cyclopropyl)methyl)-3-(trifluoromethyl) azetidin-3-ol] | < 0.3 | 3 to 1000 | – | – |
| [2H]C([2H])([2H])N1CC/C(=C\F)C(C)(C([2H])([2H])Oc2nc3c4c(nc(-c5cc(N)cc(C)c5C(F)(F)F)c(F)c4n2)OCC[C@@H]2[C@@H]4CC[C@H](CN32)N4)C1 (single isomer, unassigned) [Example 242] | < 0.3 | 3 to 1000 | – | – |
| Nc1cc(Cl)c(C(F)(F)F)c(-c2nc3c4c(nc(OC[C@@]56C[C@@H](F)CN5CC5(CC5)C6)nc4c2F)N2C[C@H]4CC[C@H](N4)[C@H]2CCO3)c1 [Example 207, 3-chloro-5-((6aR,7S,10R)-1-fluoro-13-(((6′R,7a′R)-6′-fluorodihydro-1′H,3′H-spiro[cyclopropane-1,2′-pyrrolizin]-7a′(5′H)-yl)methoxy)-5,6,6a,7,8,9,10,11-octahydro-4-oxa-3,11a,12,14,15-pentaaza[7,10]methanocyclohepta[4,5]cycloocta[1,2,3-de]naphthalen-2-yl)-4-(trifluoromethyl)aniline] | < 0.3 | 0.3 to 3 | – | – |
| Cc1cc(N)cc(-c2nc3c4c(nc(OCC5(CN6CCCC(C)(O)C6)CC5)nc4c2F)N2C[C@H]4CC[C@H](N4)[C@H]2CCO3)c1C(F)(F)F (mixture of isomers) [Example 116, 1-((1-((((6aR,7S, 10R)-2-(5-amino-3-methyl-2-(trifluoromethyl)phenyl)-1-fluoro-5,6,6a,7,8,9,10,11-octahydro-4-oxa-3,11a,12,14,15-pentaaza-7,10-methanocyclohepta [4,5]cycloocta [1,2,3-de]naphthalen-13-yl)oxy)methyl)cyclopropyl)methyl)-3-methylpiperidin-3-ol] | 0.3 to 3 | 3 to 1000 | – | – |
| Cc1cc(N)cc(-c2nc3c4c(nc(OCC5(CN6CCC(O)(C(F)(F)F)C6)CC5)nc4c2F)N2C[C@H]4CC[C@H](N4)[C@H]2CCO3)c1C(F)(F)F (mixture of isomers) [Example 92, 1-((1-((((6aR,7S, 10R)-2-(5-amino-3-methyl-2-(trifluoromethyl)phenyl)-1-fluoro-5,6,6a,7,8,9,10,11-octahydro-4-oxa-3,11a,12,14,15-pentaaza-7,10-methanocyclohepta [4,5]cycloocta[1,2,3-de]naphthalen-13-yl)oxy)methyl)cyclopropyl)methyl)-3-(trifluoromethyl) pyrrolidin-3-ol] | < 0.3 | 3 to 1000 | – | – |
| Cc1cc(N)cc(-c2nc3c4c(nc(OCC5(CN6CCSCC6)CC5)nc4c2F)N2C[C@H]4CC[C@H](N4)[C@H]2CCO3)c1C(F)(F)F [Example 159, 3-((6aR,7S,10R)-1-fluoro-13-((1-(thiomorpholinomethyl)cyclopropyl)methoxy)-5,6,6a,7,8,9,10,11-octahydro-4-oxa-3,11a,12,14,15-pentaaza-7,10-methanocyclohepta[4,5]cycloocta[1,2,3-de]naphthalen-2-yl)-5-methyl-4-(trifluoromethyl)aniline] | < 0.3 | 0.3 to 3 | – | – |
| CO[C@H]1CCN(C)[C@@H]1C(C)Oc1nc2c3c(nc(-c4cc(N)cc(C)c4C(F)(F)F)c(F)c3n1)OCC[C@@H]1[C@@H]3CC[C@H](CN21)N3 (single isomer, unassigned) [Example 75] | < 0.3 | 3 to 1000 | – | – |
| COC[C@@H]1[C@@H]2C[C@@H]2CN1CC1(COc2nc3c4c(nc(-c5cc(N)cc(C)c5C(F)(F)F)c(F)c4n2)OCC[C@@H]2[C@@H]4CC[C@H](CN32)N4)CC1 [Example 180, 3-((6aR,7S,10R)-1-fluoro-13-((1-(((1R,2S,5S)-2-(methoxymethyl)-3-azabicyclo[3.1.0]hexan-3-yl)methyl)cyclopropyl)methoxy)-5,6,6a,7,8,9,10,11-octahydro-4-oxa-3,11a,12,14,15-pentaaza-7,10-methanocyclohepta[4,5]cycloocta[1,2,3-de]naphthalen-2-yl)-5-methyl-4-(trifluoromethyl)aniline] | 0.3 to 3 | 3 to 1000 | – | – |
| Cc1cc(N)cc(-c2nc3c4c(nc(OCC5(CN6CCOCC(F)C6)CC5)nc4c2F)N2C[C@H]4CC[C@H](N4)[C@H]2CCO3)c1C(F)(F)F (stereo partly drawn) [Example 153, 3-((6aR,7S,10R)-1-fluoro-13-((1-((6-fluoro-1,4-oxazepan-4-yl)methyl)cyclopropyl)methoxy)-5,6,6a,7,8,9,10,11-octahydro-4-oxa-3,11a,12,14,15-pentaaza-7,10-methano-cyclohepta[4,5]cycloocta [1,2,3-de]naphthalen-2-yl)-5-methyl-4-(trifluoromethyl) aniline] | – | – | < 0.3 | 3 to 1000 |
| Cc1cc(N)cc(-c2nc3c4c(nc(O[C@H]5C[C@@H]6C[C@H]5CN(C)C6)nc4c2F)N2C[C@H]4CC[C@H](N4)[C@H]2CCO3)c1C(F)(F)F [Example 198, 3-((6aR,7S,10R)-1-fluoro-13-(((1S,5S,6S)-3-methyl-3-azabicyclo[3.2.1]octan-6-yl)oxy)-5,6,6a,7,8,9,10,11-octahydro-4-oxa-3,11a,12,14,15-pentaaza-7,10-methanocyclohepta[4,5]cycloocta[1,2,3-de]naphthalen-2-yl)-5-methyl-4-(trifluoromethyl)aniline] | < 0.3 | 3 to 1000 | – | – |
| Cc1cc(N)cc(-c2nc3c4c(nc(OCC5(CN6CCC(C#N)CC6)CC5)nc4c2F)N2C[C@H]4CC[C@H](N4)[C@H]2CCO3)c1C(F)(F)F [Example 165, 1-((1-((((6aR,7S,10R)-2-(5-amino-3-methyl-2-(trifluoromethyl)phenyl)-1-fluoro-5,6,6a,7,8,9,10,11-octahydro-4-oxa-3,11a,12,14,15-pentaaza-7,10-methanocyclohepta[4,5]cycloocta[1,2,3-de]naphthalen-13-yl)oxy)methyl)cyclopropyl)methyl)piperidine-4-carbonitrile] | < 0.3 | 0.3 to 3 | – | – |
